Source: US20250197376A1, “PYRAZINE AMIDE DERIVATIVES” (Novartis AG, priority 2022, published 2025)

Test system: 3D7 P. falciparum strain
Assay: P. falciparum 3D7 parasite proliferation assay (SYBR Green)
Type: cell-based
Settings: Plasmodium falciparum, Erythrocyte; 3D7 P. falciparum infected human erythrocytes, 72 hours, SYBR Green fluorescence; read-out: Pf3D7 Activity
Outline: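 3D7-infected O+ human erythrocytes (0.3% parasitemia, 2.5% hematocrit) were exposed to compound for 72 hours at 37 °C under 93% N2/4% CO2/3% O2. After overnight lysis with SYBR Green, fluorescence (ex 425/em 530 nm) gave parasite DNA content. EC50 was calculated against DMSO.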

| Compound | EC50 [nM] |
| --- | --- |
| COc1ccc2cc(-c3cncc(C(=O)NCC(C)(C)N)n3)[nH]c2c1 [Example 31, N-(2-amino-2-methylpropyl)-6-(6-methoxy-1H-indol-2-yl)pyrazine-2-carboxamide] | > 100 |
| CC(C)(N)CNC(=O)c1cncc(-c2cc3c(Cl)nccc3[nH]2)n1 [Example 41, N-(2-amino-2-methylpropyl)-6-(4-chloro-1H-pyrrolo[3,2-c]pyridin-2-yl)pyrazine-2-carboxamide] | > 100 |
